Here are results for 5 molecules from paper PMC8785525 (Malaria Journal, 2022).

One data set relates to P. falciparum Dd2. Description: In vitro anti-malarial activity, SYBR-Green I fluorescence assay, strain Dd2. The settings on record: Plasmodium falciparum, DD2, Erythrocyte, 72 h, read-out: Inhibition IC50 mean ± SD. The data set is classed as cell-based. On the procedure:
(§1) In the in vitro anti-malarial bioassay, strains of P. falciparum (chloroquine sensitive 3D7 and multidrug resistant Dd2) were kept in continuous culture in human erythrocytes in RPMI 1640 medium supplemented with 0.5% Albumax I/II and […] hypoxanthine according to the method previously described by Trager and Jensen. Synchronization of parasites was conducted using sorbitol treatment and parasitaemia was microscopically determined in Giemsa-stained smears.
(§2) In vitro anti-malarial activity assay was performed as previously described. Chloroquine and artemisinin were used as standard anti-malarial drugs, and equivalent free DQ used as a control and dissolved in dimethylsulfoxide (DMSO). Liposomes were diluted into a series of 10 µl different DQ concentrations for the in vitro assay. Each sample (10 µl) was mixed with 90 µl culture medium containing P. falciparum (0.5% parasitaemia and 2% haematocrit) and placed in 96-well microplates, which were incubated for 72 h with 5% CO2 at 37 °C. Lysis buffer (100 µl) containing 0.2 µl SYBR- Green I was then added to each well of the plate and incubated for additional 1.5 h at 37 °C. Fluorescence signal was detected at 488 nm (excitation) and 520 nm (emission) in a microplate reader (Synerfy H1, Bio Tek, USA). The intensity of fluorescence generated by the binding of SYBR-Green I to Plasmodium DNA is relative to the growth of parasites. IC50 values were derived from dose–response curves evaluated with software GraphPad.

Another data set concerns P. falciparum 3D7. Description: In vitro anti-malarial activity, SYBR-Green I fluorescence assay, strain 3D7. The settings on record: Plasmodium falciparum, 3D7, Erythrocyte, 72 h, read-out: Inhibition IC50 mean ± SD. The class given is cell-based. How it is done:
as §1, §2

On the set-up of data set [1]: method as in PMID 21914160. The settings on record: cited from earlier work.
The subject of another data set is Plasmodium parasites. Set-up: method as in PMID 28491482. The settings on record: cited from earlier work.
Setting [2] is: infected human red blood cells, DQ concentration for liposomes.

Converted amounts (≈) assume the structure as drawn. Read-outs that look alike come from different tables or passages of the source.

For orientation: IC50 means the concentration that gives 50% inhibition. For `C[C@@H]1CC[C@H]2[C@@H](C)C(=O)O[C@@H]3O[C@@]4(C)CC[C@@H]1[C@]32OO4` [Artemisinin], the IC50 with P. falciparum Dd2 (setting [2]) was 18.5 ± 0.5 nM; in the data set with P. falciparum 3D7 (setting [2]) it was 16.4 ± 5.8 nM.

Turning to `CCN(CC)CCCC(C)Nc1ccnc2cc(Cl)ccc12` (stereo not drawn) [Chloroquine], the IC50 with P. falciparum Dd2 amounted to 185 ± 16.2 nM; in the data set with P. falciparum 3D7 it was 23.75 ± 0.06 nM.

Broadly, the half-life is how long it takes for the measured level to halve. On to `C[C@H]1[C@@H](O)O[C@@H]2O[C@@]3(C)CC[C@H]4[C@H](C)CC[C@@H]1[C@@]24OO3` [DHA, dihydro-artemisinin], for which, in data set [1] (DHA formed from intravenous artesunate), the half-life is 30 to 60 min.

Turning to `CCCCCCCCCCOc1cc2c(O)c(C(=O)OCC)cnc2cc1OCC` [DQ in DMSO, Decoquinate], the “minimum inhibitory concentration (MIC)” value with Plasmodium parasites was 5.12 ng/mL (≈ 0.0123 µM). In addition, the 50% inhibitory concentration (IC50) in the data set with P. falciparum Dd2 (setting [2]) was found to be 1.57 ± 0.49 nM; in the data set with P. falciparum 3D7 (setting [2]), 1.63 ± 0.13 nM.

Take `C[C@H]1[C@H](OC(=O)CCC(=O)O)O[C@@H]2O[C@@]3(C)CC[C@H]4[C@H](C)CC[C@@H]1[C@@]24OO3` [artesunate]: the half-life result in data set [1] (intravenous artesunate, parent AS) was “less than 15 min”.
